The source of these data is PubChem BioAssay AID212 (DTP/NCI, 2004).

The test concerns BDF1 mice, colon carcinoma 38 sc, T/C %. The test is described as follows: NCI In Vivo Anticancer Drug Screen. Data for tumor model Colon Carcinoma 38 (subcutaneous) in B6D2F1 (BDF1) mice. The procedure:
The antitumor activity of compounds was measured in mice bearing transplantable tumors. Survival or tumor size were measured and the results are expressed as the measurement made in the treated group (T) divided by the measurement made in the vehicle treated control group (C). The tumor model used in this assay is Colon Carcinoma 38 (subcutaneous) in B6D2F1 (BDF1) mice

[1] abbreviates: endpoint: median tumor weight (est.), dose: 25.0 mg/kg/injection, schedule: Q07DX002 (ip), vehicle: Klucel (hydroxypropylcellulose) (HPC), higher = larger tumour.
Setting [2] is: endpoint: median tumor weight (est.), dose: 50.0 mg/kg/injection, schedule: Q07DX002 (ip), vehicle: Klucel (hydroxypropylcellulose) (HPC), higher = larger tumour.
Setting [3] is: endpoint: median tumor weight (est.), dose: 100.0 mg/kg/injection, schedule: Q07DX002 (ip), vehicle: Klucel (hydroxypropylcellulose) (HPC), higher = larger tumour.
The mark [4] stands for this setting: endpoint: median tumor weight (est.), dose: 25.0 mg/kg/injection, schedule: Q07DX002 (ip), vehicle: saline with Tween-80, higher = larger tumour.
[5] abbreviates: endpoint: median tumor weight (est.), dose: 50.0 mg/kg/injection, schedule: Q07DX002 (ip), vehicle: saline with Tween-80, higher = larger tumour.

Molecules are shown by their SMILES. Several values for one entry are separate records, joined by “and”; a condition that tells them apart may be missing. Equal values may be shown once. Results filed as inconclusive are left out.

Consider `COC1=C(C)C(=O)C2=C(C1=O)C1C3CC4=C(C(=O)C(OC)=C(C)C4=O)C(CNC(=O)C(C)=O)N3C(C#N)C(C2)N1C` (stereo unspecified), for which the T/C (endpoint: median tumor weight (est.), dose: 0.16 mg/kg/injection, schedule: Q07DX002 (ip), vehicle: Klucel (hydroxypropylcellulose) (HPC), higher = larger tumour) is 56 % of control; the T/C (endpoint: median tumor weight (est.), dose: 0.25 mg/kg/injection, schedule: Q07DX002 (ip), vehicle: Klucel (hydroxypropylcellulose) (HPC), higher = larger tumour) was 98 % of control; the T/C (endpoint: median tumor weight (est.), dose: 0.31 mg/kg/injection, schedule: Q07DX002 (ip), vehicle: Klucel (hydroxypropylcellulose) (HPC), higher = larger tumour) was 84 % of control; the T/C (endpoint: median tumor weight (est.), dose: 0.5 mg/kg/injection, schedule: Q07DX002 (ip), vehicle: Klucel (hydroxypropylcellulose) (HPC), higher = larger tumour) was 84 % of control; the T/C (endpoint: median tumor weight (est.), dose: 0.62 mg/kg/injection, schedule: Q07DX002 (ip), vehicle: Klucel (hydroxypropylcellulose) (HPC), higher = larger tumour) is 80 % of control; the T/C (endpoint: median tumor weight (est.), dose: 1.0 mg/kg/injection, schedule: Q07DX002 (ip), vehicle: Klucel (hydroxypropylcellulose) (HPC), higher = larger tumour) was 87 % of control. The T/C reads like this: (endpoint: median tumor weight (est.), dose: 1.25 mg/kg/injection, schedule: Q07DX002 (ip), vehicle: Klucel (hydroxypropylcellulose) (HPC), higher = larger tumour) 53 % of control and 73 % of control; (endpoint: median tumor weight (est.), dose: 2.0 mg/kg/injection, schedule: Q07DX002 (ip), vehicle: Klucel (hydroxypropylcellulose) (HPC), higher = larger tumour) 72 % of control; (endpoint: median tumor weight (est.), dose: 4.0 mg/kg/injection, schedule: Q07DX002 (ip), vehicle: Klucel (hydroxypropylcellulose) (HPC), higher = larger tumour) 77 % of control.
For `C/C(=N\N=C(/[Se])N1CC2CCC(CC2)C1)c1ccccn1`, the T/C (endpoint: median tumor weight (est.), dose: 3.0 mg/kg/injection, schedule: Q07DX002 (ip), vehicle: Klucel (hydroxypropylcellulose) (HPC), higher = larger tumour) is 111 % of control; the T/C (endpoint: median tumor weight (est.), dose: 6.0 mg/kg/injection, schedule: Q07DX002 (ip), vehicle: Klucel (hydroxypropylcellulose) (HPC), higher = larger tumour) is 67 % of control; the T/C (endpoint: median tumor weight (est.), dose: 12.0 mg/kg/injection, schedule: Q07DX002 (ip), vehicle: Klucel (hydroxypropylcellulose) (HPC), higher = larger tumour) was 91 % of control; the T/C under setting [1] is 106 % of control; the T/C under setting [2] is 45 % of control.
For the compound `CCCCCC[C@H]([C@H](C)O)n1cnc2c(N)ncnc21`, the T/C is 113 % of control (endpoint: median survival time, dose: 22.0 mg/kg/injection, schedule: Q02DX006 (iv), vehicle: saline, higher = longer survival); 111 % of control (endpoint: median survival time, dose: 36.0 mg/kg/injection, schedule: Q02DX006 (iv), vehicle: saline, higher = longer survival); 92 % of control (endpoint: median survival time, dose: 58.0 mg/kg/injection, schedule: Q02DX006 (iv), vehicle: saline, higher = longer survival); 115 % of control (endpoint: median survival time, dose: 93.0 mg/kg/injection, schedule: Q02DX006 (iv), vehicle: saline, higher = longer survival); 91 % of control (endpoint: median tumor weight (est.), dose: 6.25 mg/kg/injection, schedule: Q07DX002 (ip), vehicle: Klucel (hydroxypropylcellulose) (HPC), higher = larger tumour); 194 % of control (endpoint: median tumor weight (est.), dose: 12.5 mg/kg/injection, schedule: Q07DX002 (ip), vehicle: Klucel (hydroxypropylcellulose) (HPC), higher = larger tumour). The T/C under setting [3] was 117 % of control and 103 % of control.
`O=C(O)C1(C(=O)O)CCC1.[NH2-].[NH2-].[Pt+2]`: the T/C by setting is: (endpoint: median tumor weight (est.), dose: 6.25 mg/kg/injection, schedule: Q07DX002 (ip), vehicle: dextrose, higher = larger tumour) 81 % of control; (endpoint: median tumor weight (est.), dose: 6.25 mg/kg/injection, schedule: Q07DX003 (ip), vehicle: other, higher = larger tumour) 53 % of control; (endpoint: median tumor weight (est.), dose: 12.5 mg/kg/injection, schedule: Q07DX003 (ip), vehicle: other, higher = larger tumour) 81 % of control; (endpoint: median tumor weight (est.), dose: 25.0 mg/kg/injection, schedule: Q07DX003 (ip), vehicle: dextrose, higher = larger tumour) 64 % of control; (endpoint: median tumor weight (est.), dose: 25.0 mg/kg/injection, schedule: Q07DX003 (ip), vehicle: other, higher = larger tumour) 74 % of control; (endpoint: median tumor weight (est.), dose: 50.0 mg/kg/injection, schedule: Q07DX003 (ip), vehicle: dextrose, higher = larger tumour) 34 % of control. Also, the T/C is, setting by setting: (endpoint: median tumor weight (est.), dose: 50.0 mg/kg/injection, schedule: Q07DX003 (ip), vehicle: other, higher = larger tumour) 42 % of control; (endpoint: median tumor weight (est.), dose: 100.0 mg/kg/injection, schedule: Q07DX003 (ip), vehicle: dextrose, higher = larger tumour) 25 % of control; (endpoint: median tumor weight (est.), dose: 100.0 mg/kg/injection, schedule: Q07DX003 (ip), vehicle: other, higher = larger tumour) 21 % of control.
In the case of `NC(N)=NC(N)=Nc1ccc(-c2ccc(N=C(N)N=C(N)N)cc2)cc1`, the T/C runs as follows: (endpoint: median tumor weight (est.), dose: 3.12 mg/kg/injection, schedule: Q07DX002 (ip), vehicle: saline with Tween-80, higher = larger tumour) 72 % of control; (endpoint: median tumor weight (est.), dose: 6.25 mg/kg/injection, schedule: Q07DX002 (ip), vehicle: saline with Tween-80, higher = larger tumour) 61 % of control; (endpoint: median tumor weight (est.), dose: 12.5 mg/kg/injection, schedule: Q07DX002 (ip), vehicle: saline with Tween-80, higher = larger tumour) 75 % of control; under setting [4], 69 % of control; under setting [5], 58 % of control.
Regarding `Nc1nc(-c2cccc3ccccc23)cc2ccccc12`, the T/C by setting is: under setting [4], 108 % of control; under setting [5], 123 % of control; (endpoint: median tumor weight (est.), dose: 200.0 mg/kg/injection, schedule: Q07DX002 (ip), vehicle: saline with Tween-80, higher = larger tumour) 77 % of control; (endpoint: median tumor weight (est.), dose: 800.0 mg/kg/injection, schedule: Q07DX002 (ip), vehicle: saline with Tween-80, higher = larger tumour) 108 % of control.
On to `Cc1cc(NCCCCCCCNc2cc(C)nc3cc(N)ccc23)c2ccc(N)cc2n1`, for which the T/C (endpoint: median tumor weight (est.), dose: 1.56 mg/kg/injection, schedule: Q07DX002 (ip), vehicle: saline with Tween-80, higher = larger tumour) is 78 % of control.
For `CC(=O)NC(C=O)OCC=O` (stereo unspecified), the T/C by setting is: (endpoint: median tumor weight (est.), dose: 12.5 mg/kg/injection, schedule: Q07DX002 (ip), vehicle: water, higher = larger tumour) 92 % of control; (endpoint: median tumor weight (est.), dose: 400.0 mg/kg/injection, schedule: Q07DX002 (ip), vehicle: water, higher = larger tumour) 152 % of control.
Turning to `CCOC(=O)CNC(=O)CCCCSc1ncnc2nc[nH]c12`, the T/C (endpoint: median tumor weight (est.), dose: 200.0 mg/kg/injection, schedule: Q07DX003 (ip), vehicle: saline with Tween-80, higher = larger tumour) is 74 % of control; the T/C (endpoint: median tumor weight (est.), dose: 400.0 mg/kg/injection, schedule: Q07DX003 (ip), vehicle: saline with Tween-80, higher = larger tumour) was 104 % of control; the T/C (endpoint: median tumor weight (est.), dose: 800.0 mg/kg/injection, schedule: Q07DX003 (ip), vehicle: saline with Tween-80, higher = larger tumour) is 79 % of control; the T/C (endpoint: median tumor weight (est.), dose: 1600.0 mg/kg/injection, schedule: Q07DX003 (ip), vehicle: saline with Tween-80, higher = larger tumour) was 82 % of control.
Consider `COC1CC(C)C(OC)C2=CC(=O)C=C(NC(=O)/C(C)=C/C=C\C(C)C(OC(N)=O)/C(C)=C\C(C)C1OC)C2=O` (stereo unspecified), for which the T/C reads like this: (endpoint: median tumor weight (est.), dose: 3.13 mg/kg/injection, schedule: Q07DX002 (ip), vehicle: saline + alcohol, higher = larger tumour) 111 % of control; (endpoint: median tumor weight (est.), dose: 6.25 mg/kg/injection, schedule: Q07DX002 (ip), vehicle: saline + alcohol, higher = larger tumour) 110 % of control; (endpoint: median tumor weight (est.), dose: 12.5 mg/kg/injection, schedule: Q07DX002 (ip), vehicle: saline + alcohol, higher = larger tumour) 105 % of control; (endpoint: median tumor weight (est.), dose: 25.0 mg/kg/injection, schedule: Q07DX002 (ip), vehicle: saline + alcohol, higher = larger tumour) 110 % of control; (endpoint: median tumor weight (est.), dose: 50.0 mg/kg/injection, schedule: Q07DX002 (ip), vehicle: saline + alcohol, higher = larger tumour) 102 % of control.
Take `CCN(CC)CCNc1ccc(C)c2sc3ccccc3c(=O)c12`: the T/C (endpoint: median tumor weight (est.), dose: 25.0 mg/kg/injection, schedule: Q07DX002 (ip), vehicle: saline, higher = larger tumour) is 47 % of control; the T/C (endpoint: median tumor weight (est.), dose: 50.0 mg/kg/injection, schedule: Q07DX002 (ip), vehicle: saline, higher = larger tumour) was 78 % of control; the T/C (endpoint: median tumor weight (est.), dose: 50.0 mg/kg/injection, schedule: Q07DX002 (ip), vehicle: suspension in saline, higher = larger tumour) was 45 % of control; the T/C (endpoint: median tumor weight (est.), dose: 100.0 mg/kg/injection, schedule: Q07DX002 (ip), vehicle: saline, higher = larger tumour) is 105 % of control; the T/C (endpoint: median tumor weight (est.), dose: 100.0 mg/kg/injection, schedule: Q07DX002 (ip), vehicle: suspension in saline, higher = larger tumour) is 24 % of control; the T/C (endpoint: median tumor weight (est.), dose: 200.0 mg/kg/injection, schedule: Q07DX002 (ip), vehicle: saline, higher = larger tumour) was 16 % of control.
Consider `O=S(=O)(O)O`, for which the T/C under setting [1] is 110 % of control; the T/C under setting [2] was 103 % of control; the T/C under setting [3] was 78 % of control; the T/C (endpoint: median tumor weight (est.), dose: 200.0 mg/kg/injection, schedule: Q07DX002 (ip), vehicle: Klucel (hydroxypropylcellulose) (HPC), higher = larger tumour) was 112 % of control.
